According to PMC7179167 (Molecules, 2020):
In brackets after ≈: the same amount, converted by molar mass. Read-outs that look alike come from different tables or passages of the source. One block for each compound: values may come before it.

Columns and labels:
[1] = test system: S. aureus (ATCC 6538); assay: Disk diffusion antimicrobial test, S. aureus; type: cell-based, Staphylococcus aureus; conditions: Staphylococcus aureus, ATCC6538, Gram-positive, 20 mg per disc (title), concentration 20 µg (footnote)
Method: (§1) The newly synthesized compounds were chosen to be evaluated in vitro towards a variety of pathogenic microorganisms; Gram-positive bacteria: S. aureus (ATCC 6538) and B. subtilis (ATCC 6633); Gram-negative bacteria: P. areuginosa (ATCC 27853) and E. coli (DSMZ 1058); yeast: C. albicans (ATCC 10231) and S. cerevisiae (ATCC 9080) and fungi: A. niger (NRRL A-326) using the disk diffusion method at a single dose of 20 µl. The results are shown in Table 1 as the growth inhibition zone (mm).
(§2) The antimicrobial activity of target compounds were evaluated to be in vitro against a variety of pathogenic microorganisms, namely Staphylococcus aureus (ATCC 6538), Bacillus subtilis (ATCC 6633) (Gram-positive bacteria), Pseudomonas areuginosa (ATCC 27853), Escherichia coli (DSMZ 1058) (Gram-negative bacteria), Candida albicans (ATCC 10231), Saccharomyces cerevisiae (ATCC 9080) (Yeast) and Aspergillus niger (NRRL A-326) (Fungi) using the disk diffusion method at a single dose of 20 µg. The microorganisms were served and obtained from the Microbial Biotechnology Department, National Research Center, Giza, Egypt. Amphotericin, amoxicillin and ciprofloxacin were used as reference drugs (Oxoid™ Disks). The tested compounds 11a–c, 12a–c, 13a–i, 14a–i and 15a,b were dissolved in dimethylsulphoxide (DMSO) at a concentration of 1 mg/mL. Aliquots of 20 μl were soaked on filter paper discs (6 mm) and dried at room temperature under sterilized conditions. The paper discs were placed on inoculated agar plats and then incubated for 24 h at 37 °C for bacterial strains and after 48–72 h incubation at 30 °C for fungi. Both bacterial and yeast strains were grown on nutrient agar medium (g/l): beef extract, 3; peptone, 10 and agar, 20 at pH of 7.2. The fungal strain was grown on Czapek-Dox medium (g/l): sucrose, 30; NaNO3, 3; MgSO4.7H2O, 0.5l; KCl, 0.5; FeSO4, 0.01; K2HPO4, 1 and agar, 20 at pH of 6.0.

[2] = test system: B. subtilis (ATCC 6633); assay: Disk diffusion antimicrobial test, B. subtilis; type: cell-based, Bacillus subtilis; conditions: Bacillus subtilis, ATCC6633, Gram-positive, 20 mg per disc (title), concentration 20 µg (footnote)
Method: as §1, §2

[3] = test system: P. aeruginosa (ATCC 27853); assay: Disk diffusion antimicrobial test, P. aeruginosa; type: cell-based, Pseudomonas areuginosa; conditions: Pseudomonas aeruginosa, ATCC27853, Gram-negative, 20 mg per disc (title), concentration 20 µg (footnote)
Method: as §1, §2

[4] = test system: C. albicans (ATCC 10231); assay: Disk diffusion antimicrobial test, C. albicans; type: cell-based, Candida albicans; conditions: Candida albicans, ATCC10231, disk diffusion; yeast; 20 mg per disc (title), concentration 20 µg (footnote)
Method: as §1, §2

[5] = test system: A. niger (NRRL A-326); assay: Disk diffusion antimicrobial test, A. niger; type: cell-based; conditions: Aspergillus niger, fungi, 20 mg per disc (title), concentration 20 µg (footnote)
Method: as §1, §2

[6] = DPPH free radical scavenging assay; type: biochemical; conditions: concentration of 20µg/l, mean ± SD of three experiments
Method: Antioxidant activity of the newly synthesized 13a–i, 14a–i, 11a–c and 12a–c were assessed in terms of hydrogen-donating or radical-scavenging ability via the stable free radical 1,1-diphenyl-2-picrylhydrazyl (DPPH) using ascorbic acid as a reference at a concentration of […].
The free radical scavenging activity (RSA) was assessed spectrophotometically at 517 nm via decoloration of the solution of the DPPH (1,1-diphenyl-2-picrylhydrazyl) radical according to Brand-Williams et al. 1995 [32]. DPPH solution was prepared by dissolving of 20 mg of DPPH in one liter of dimethylsulphoxide (DMSO). A freshly prepared DPPH solution was used for the assay. Each of the tested compounds 11a–c, 12a–c, 13a–i, 14a–i and 15a,b were dissolved in DMSO (1mg/mL). A volume of […] of a DMSO stock solution of the test compounds was added to 2 mL of freshly prepared DPPH in DMSO solution. The mixtures were shaken in a vortex (2500 rpm) for 1 min and then left to stand for 15, 30, 45 and 60 min in the dark room. The absorbance was measured at 517 nm against blank using UV visible spectrophotometer 2401 PC (Shimadzu, Kyoto, Japan). Lower absorbance of the reaction mixture indicated higher free radical scavenging activity was analyzed from the graph plots of the inhibition percentage against the compound concentration. The experiment was carried out in triplicate and averaged. The scavenging activity was calculated according to the following formula:Scavenging ability (%) = (A517 of control - A517of sample / A 517 of control) ×100(1)

[7] = test system: HCT-116 (human colon cancer); assay: MTT cytotoxicity assay, HCT-116; type: cell-based; conditions: Homo sapiens
[8] = test system: HepG-2 (human liver cancer); assay: MTT cytotoxicity assay, HepG-2; type: cell-based
[9] = test system: MCF-7 (human breast cancer); assay: MTT cytotoxicity assay, MCF-7; type: cell-based
[10] = test system: normal skin fibroblast cells (BJ-1); assay: MTT cytotoxicity assay, normal skin fibroblast BJ-1; type: cell-based; conditions: Homo sapiens, 48 h, read-out: Growth Inhibition (%) BJ-1
[11] = test system: caspase-3; assay: Caspase-3 colorimetric assay in MCF-7 cells; type: cell-based, human
Source text: (§3) The promising antiproliferative results reported for compounds 11a, 11b, 12a, 12b and 13c against cell lines under study have prompted us to investigate the mechanism of cell death induced by these compounds. Apoptosis induction was examined in both MCF-7 and HCT-116 cancer cells by assaying the level of its key protein markers, namely: proapoptotic (p53, Bcl 2-associated X, Bax and caspases3) and antiapoptotic (B-cell lymphoma-2, Bcl-2). MCF-7 and HCT-116 cells undergoing apoptosis was detected by use of the ELISA technique. Protein marker levels were quantified according to Bradford assay.
(§4) Briefly, cells ([…] and HCT) were seeded at a concentration of 1.2–1.8 × 10^3 cells/well in 6-well plates. After 48-h treatment, the collected cells were lysed and centrifuged at 10,000 rpm for 20 min at 4 °C. The protein concentration was measured in the supernatant by Bradford protein assay. Volume containing […] of total protein was incubated with […] of caspase substrate in […] of the reaction buffer at 37 °C for 1 h in the dark. Caspase-3 activity was determined by a microplate reader at 405 nm using a caspase-3 colorimetric assay kit (Abcam) according to the manufacturer’s instructions. In vitro protein level quantitative measurement of apoptotic marker p53, Bcl-2-associated X (Bax) and antiapoptotic marker B-cell lymphoma-2 (Bcl-2) in cell lysate were assessed by Enzyme-Linked Immunosorbent Assay Simple Step ELISA® (ab199080, ab119506 and ab171571; Abcam) according to the manufacturer’s instructions.

[12] = test system: Bcl-2; assay: Bcl-2 ELISA in MCF-7 cells; type: cell-based, human; conditions: MCF-7 cells treated at IC50 concentration; control 25.13 ± 3.45; mean ± SD
Source text: as §3, §4

[13] = test system: p53; assay: p53 ELISA in MCF-7 cells; type: cell-based, human; conditions: MCF-7 cells treated at IC50 concentration; control 4.18 ± 0.58; mean ± SD
Source text: as §3, §4

[14] = test system: Bax; assay: Bax ELISA in MCF-7 cells; type: cell-based, human; conditions: MCF-7 cells treated at IC50 concentration; control 39.56 ± 4.56; mean ± SD
Source text: as §3, §4

[15] = test system: caspase-3; assay: Caspase-3 colorimetric assay in HCT-116 cells; type: cell-based, human; conditions: HCT-116 cells treated at IC50 concentration; control 13.60 ± 2.45; mean ± SD
Source text: as §3, §4

[16] = test system: Bcl-2; assay: Bcl-2 ELISA in HCT-116 cells; type: cell-based, human; conditions: HCT-116 cells treated at IC50 concentration; control 23.56 ± 3.56; mean ± SD
Source text: as §3, §4

[17] = test system: p53; assay: p53 ELISA in HCT-116 cells; type: cell-based, human; conditions: HCT-116 cells treated at IC50 concentration; control 1.68 ± 0.06; mean ± SD
Source text: as §3, §4

[18] = test system: Bax; assay: Bax ELISA in HCT-116 cells; type: cell-based, human; conditions: HCT-116 cells treated at IC50 concentration; control 118.54 ± 0.83; mean ± SD
Source text: as §3, §4

[19] = test system: S. cerevisiae (ATCC 9080); assay: Disk diffusion antimicrobial test, S. cerevisiae; type: cell-based; conditions: Saccharomyces cerevisiae, ATCC9080, yeast, 20 mg per disc (title), concentration 20 µg (footnote)
Method: as §1, §2

[20] = test system: E. coli (DSMZ 1058); assay: Disk diffusion antimicrobial test, E. coli; type: cell-based; conditions: Escherichia coli, DSMZ1058, Gram-negative, 20 mg per disc (title), concentration 20 µg (footnote)
Method: as §1
The antimicrobial activity of target compounds were evaluated to be in vitro against a variety of pathogenic microorganisms, namely Staphylococcus aureus (ATCC 6538), Bacillus subtilis (ATCC 6633) (Gram-positive bacteria), Pseudomonas areuginosa (ATCC 27853), Escherichia coli (DSMZ 1058) (Gram-negative bacteria), Candida albicans (ATCC 10231), Saccharomyces cerevisiae (ATCC 9080) (Yeast) and Aspergillus niger (NRRL A-326) (Fungi) using the disk diffusion method at a single dose of 20 µg. The microorganisms were served and obtained from the Microbial Biotechnology Department, National Research Center, Giza, Egypt. Amphotericin, amoxicillin and ciprofloxacin were used as reference drugs (Oxoid™ Disks). The tested compounds 11a–c, 12a–c, 13a–i, 14a–i and 15a,b were dissolved in dimethylsulphoxide (DMSO) at a concentration of 1 mg/mL. […]

[21] = 15 min, read-out: Scavenging Activity (%) on DPPH radicals at 15 min
[22] = 30 min, read-out: Scavenging Activity (%) on DPPH radicals at 30 min
[23] = 45 min, read-out: Scavenging Activity (%) on DPPH radicals at 45 min
[24] = 60 min, read-out: Scavenging Activity (%) on DPPH radicals at 60 min

melting point: 217 to 219 °C
Compound: COc1c(-c2cnc3ccccc3c2C(=O)O)c(O)cc2occc12 [Compound 15a, 3-(6-Hydroxy-4-methoxybenzofuran-5-yl)quinoline-4-carboxylic acid]
zone of inhibition at 20 µg/disc [1]: 8 mm
zone of inhibition at 20 µg/disc [2]: 16 mm
zone of inhibition at 20 µg/disc [3]: 24 mm
zone of inhibition at 20 µg/disc [4]: 12 mm
zone of inhibition at 20 µg/disc [5]: 10 mm
inhibition [6, 21]: 9.36 ± 1.25%
inhibition [6, 22]: 14.2 ± 1.61%
inhibition [6, 23]: 20.4 ± 1.92%
inhibition [6, 24]: 24.8 ± 2.05%

Compound: O=C1Nc2ccccc2C12CC(c1cn(Cc3ccccc3)c3ccccc13)=NN2 (centres unmarked) [Compound 13c, 5’-(N-Benzyl-1H-indol-3-yl)-2’,4’-dihydrospiro(indoline-3,3’-pyrazol)-2-one]
inhibition [6, 21]: 14 ± 1.36%
inhibition [6, 22]: 21 ± 1.26%
inhibition [6, 23]: 24 ± 1.51%
inhibition [6, 24]: 35.1 ± 1.61%
inhibition at 100 µg/mL ([7]; HCT-116, 100 µg/ml, 48 h, read-out: Growth Inhibition (%) HCT-116): 97.9%
IC50 ([7]; HCT-116, 48 h, 48 h post-treatment): 14.7 µg/mL (≈ 37.5 µM)
inhibition at 100 µg/mL ([8]; HepG2, 100 µg/ml, 48 h, read-out: Growth Inhibition (%) HepG-2): 90.9%
IC50 ([8]; HepG2, 48 h post-treatment): 27 µg/mL (≈ 68.8 µM)
inhibition at 100 µg/mL ([9]; MCF7, 100 µg/ml, 48 h, read-out: Growth Inhibition (%) MCF-7): 97.8%
IC50 ([9]; MCF7, 48 h post-treatment): 24.1 µg/mL (≈ 61.4 µM)
inhibition at 100 µg/mL [10]: 5.1%
Caspase-3 Activity % ([11]; MCF-7 cells treated at IC50 concentration, control 10.2 ± 2.84, mean ± SD): 39.07 ± 4.97%
Elevation of active caspase-3 protein levels compared to the control ([11]; MCF-7 cells, IC50 concentration): ~3.8 folds
Bcl-2 (ng/50 mg Protein) [12]: 44.5 ± 4.56 ng/50 mg Protein
p53 (Pg/50 mg Protein) [13]: 7.34 ± 1.5 Pg/50 mg Protein
Bax (pg/50 mg Protein) [14]: 88.34 ± 3.79 pg/50 mg Protein
Caspase-3 Activity % [15]: 47.32 ± 6.32%
Bcl-2 (ng/50 mg Protein) [16]: 57.45 ± 6.45 ng/50 mg Protein
p53 (pg/50 mg Protein) [17]: 2.34 ± 0.95 pg/50 mg Protein
Bax (pg/50 mg Protein) [18]: 123.45 ±7.45 pg/50 mg Protein

Compound: C[C@@H]1[C@H](O)[C@@H](C)/C=C/C=C/C=C/C=C/C=C/C=C/C=C/[C@H](O[C@@H]2O[C@H](C)[C@@H](O)[C@H](N)[C@@H]2O)C[C@@H]2O[C@](O)(C[C@@H](O)C[C@@H](O)[C@H](O)CC[C@@H](O)C[C@@H](O)CC(=O)O[C@H]1C)C[C@H](O)[C@H]2C(=O)O [Amphotericin B, amphotericin B, reference compound]
zone of inhibition at 20 µg/disc [4]: 23.5 mm
zone of inhibition at 20 µg/disc [19]: 23.5 mm
zone of inhibition at 20 µg/disc [5]: 26.7 mm

Compound: O=C(O)c1cn(C2CC2)c2cc(N3CCNCC3)c(F)cc2c1=O [Ciprofloxacin, ciprofloxacin, reference compound]
zone of inhibition at 20 µg/disc [3]: 30.2 mm
zone of inhibition at 20 µg/disc [20]: 25.8 mm
